As a reminder, the IC50 is the concentration at which inhibition is half-maximal. For orientation: IC20 means the concentration at which the effect reaches the 20% level. Low readings indicate greater potency, high ones weaker potency.

Some results are limits rather than exact numbers.

Holding throughout (format): cell-based
In series [1] the target is T1, NLRP3 (Homo sapiens, UniProt Q96P20). Description: THP-1 cells pyroptosis assay. More on the design: Seed THP-1 cells (25,000 cells/well) containing 1.0 μg/ml LPS; host or cells: THP-1 cells. Conditions: 1.0 μg/ml LPS, nigericin 5 μM, resazurin readout. The protocol:
THP-1 cells (ATCC #TIB-202) were grown in RPMI containing L-glutamine (Gibco #11835) supplemented with 1 mM sodium pyruvate (Sigma #S8636) and penicillin (100 units/ml)/streptomycin (0.1 mg/ml) (Sigma #P4333) in 10% Fetal Bovine Serum (FBS) (Sigma #F0804). The cells were routinely passaged and grown to confluency (~10^6 cells/ml). On the day of the experiment, THP-1 cells were harvested and resuspended into RPMI medium (without FBS). The cells were then counted and viability (>90%) checked by Trypan blue (Sigma #T8154). Appropriate dilutions were made to give a concentration of 625,000 cells/ml. To this diluted cell solution was added LPS (Sigma #L4524) to give a […] Final Assay Concentration (FAC). 40 μl of the final preparation was aliquoted into each well of a 96-well plate. The plate thus prepared was used for compound screening.
The following method step-by-step assay was followed for compound screening. • 1. Seed THP-1 cells (25,000 cells/well) containing 1.0 μg/ml LPS in 40 μl of RPMI medium (without FBS) in 96-well, black walled, clear bottom cell culture plates coated with poly-D-lysine (VWR #734-0317) • 2. Add 5 μl compound (8 points half-log dilution, with 10 μM top dose) or vehicle (DMSO 0.1% FAC) to the appropriate wells • 3. Incubate for 3 hours at 37° C., 5% CO2 • 4. Add 5 μl nigericin (Sigma #N7143) (FAC 5 μM) to all wells • 5. Incubate for 1 hr at 37° C., 5% CO2 • 6. At the end of the incubation period, spin plates at 300×g for 3 mins and remove supernatant • 7. Then add 50 μl of resazurin (Sigma #R7017) (FAC 100 μM resazurin in RPMI medium without FBS) and incubate plates for a further 1-2 hours at 37° C. and 5% CO2 • 8. Plates were read in an Envision reader at Ex 560 nm and Em 590 nm • 9. IC50 data is fitted to a non-linear regression equation (log inhibitor vs response-variable slope 4-parameters)
On the technique in general: Resazurin is reduced to fluorescent resorufin, in cell work by metabolically active cells.

Series [2] has as its target T1, NLRP3. Description: Human whole blood IL-1β release assay. Conditions: 1 μg/ml LPS, nigericin 10 μM, IL-1β AlphaLisa. The protocol: For systemic delivery, the ability to inhibit NLRP3 when the compounds are present within the bloodstream is of great importance. For this reason, the NLRP3 inhibitory activity of a number of compounds in human whole blood was investigated in accordance with the following protocol.
Human whole blood in Li-heparin tubes was obtained from healthy donors from a volunteer donor panel. • 1. Plate out 80 μl of whole blood containing 1 μg/ml of LPS in 96-well, clear bottom cell culture plate (Corning #3585) • 2. Add 10 μl compound (8 points half-log dilution with 10 μM top dose) or vehicle (DMSO 0.1% FAC) to the appropriate wells • 3. Incubate for 3 hours at 37° C., 5% CO2 • 4. Add 10 μl nigericin (Sigma #N7143) (10 μM FAC) to all wells • 5. Incubate for 1 hr at 37° C., 5% CO2 • 6. At the end of the incubation period, spin plates at 300×g for 5 mins to pellet cells and remove 20 μl of supernatant and add to 96-well v-bottom plates for IL-1β analysis (note: these plates containing the supernatants can be stored at −80° C. to be analysed at a later date) • 7. IL-1β was measured according to the manufacturer protocol (Perkin Elmer-AlphaLisa IL-1 Kit AL220F-5000) • 8. IC50 data is fitted to a non-linear regression equation (log inhibitor vs response-variable slope 4-parameters)
(In general: Alpha assays give light when donor and acceptor beads are brought close together.)

In series [3] the target is T2, hERG cardiac potassium channel (Homo sapiens, UniProt Q12809).
T2 construct: host or cells: CHO crelox hERG cell line (Chinese hamster)
T2 sequence (Q12809 whole entry): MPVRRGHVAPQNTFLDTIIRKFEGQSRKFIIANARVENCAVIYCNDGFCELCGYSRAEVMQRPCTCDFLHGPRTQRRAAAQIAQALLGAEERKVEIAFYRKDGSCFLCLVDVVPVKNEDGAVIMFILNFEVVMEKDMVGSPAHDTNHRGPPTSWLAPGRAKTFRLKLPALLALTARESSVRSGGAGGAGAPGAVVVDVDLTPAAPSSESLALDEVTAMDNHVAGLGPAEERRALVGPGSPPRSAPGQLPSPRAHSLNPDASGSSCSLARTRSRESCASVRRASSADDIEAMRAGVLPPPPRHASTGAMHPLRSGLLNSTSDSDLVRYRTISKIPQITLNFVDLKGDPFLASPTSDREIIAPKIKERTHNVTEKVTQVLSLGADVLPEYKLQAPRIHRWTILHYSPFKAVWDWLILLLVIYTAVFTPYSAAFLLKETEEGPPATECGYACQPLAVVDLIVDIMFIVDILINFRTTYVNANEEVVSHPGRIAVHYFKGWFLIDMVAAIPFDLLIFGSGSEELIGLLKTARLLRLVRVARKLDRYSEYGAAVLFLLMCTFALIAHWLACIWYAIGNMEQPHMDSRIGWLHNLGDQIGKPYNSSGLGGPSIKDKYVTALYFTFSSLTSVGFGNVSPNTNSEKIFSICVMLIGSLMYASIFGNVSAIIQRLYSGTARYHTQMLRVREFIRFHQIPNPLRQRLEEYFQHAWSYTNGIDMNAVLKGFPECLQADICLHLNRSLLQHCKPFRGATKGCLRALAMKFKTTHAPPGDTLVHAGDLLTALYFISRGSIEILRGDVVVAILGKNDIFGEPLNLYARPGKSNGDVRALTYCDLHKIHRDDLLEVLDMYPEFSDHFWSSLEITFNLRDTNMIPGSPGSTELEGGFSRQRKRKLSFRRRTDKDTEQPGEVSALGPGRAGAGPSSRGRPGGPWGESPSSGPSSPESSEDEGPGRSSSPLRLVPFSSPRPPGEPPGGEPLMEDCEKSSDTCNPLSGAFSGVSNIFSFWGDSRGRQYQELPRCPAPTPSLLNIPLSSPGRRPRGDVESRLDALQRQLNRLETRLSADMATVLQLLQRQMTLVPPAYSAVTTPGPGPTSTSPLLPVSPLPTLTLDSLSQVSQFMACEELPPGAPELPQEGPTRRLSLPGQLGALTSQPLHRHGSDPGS
Briefly: hERG screening assay (automated patch clamp, CHO crelox hERG cells). The note with it: CHO crelox hERG cells (CHO cells that express hERG), whole-cell patch clamp, 35-37° C. The source says:
In the drug development process of small molecules, one of the most frequent adverse side effects, leading to the failure of drugs, is the cardiac arrhythmias. Such failure is often related to the capacity of the drug to inhibit the human ether-a-go-go-related gene (hERG) cardiac potassium channel. Having no or low inhibition of the hERG cardiac potassium channel is therefore considered as beneficial.
The CHO crelox hERG cell line (ATCC reference Nr. PTA-6812, female Chinese hamster cells) was generated and validated at Roche. Ready-to-use frozen instant CHO-hERG cells were cryopreserved at Evotec (Germany) and used directly in the experiments.
The extracellular solution contains (in mM): NaCl 150; KCl 4; CaCl2 1; MgCl2 1; HEPES 10; pH 7.2-7.4 with NaOH, osmolarity 290-330 mOsm. […]
The effects of a compound on hERG K+-currents parameters will be evaluated at 2 concentrations in at least 4 cells.
The hERG test is performed using automated patch clamp system SynchroPatch® 384 (Nanion Technologies GmbH, Germany). K+ currents are measured with the patch-voltage-clamp technique in the whole-cell configuration at 35-37° C. […]
The amplitudes of IKhERG were recorded in each concentration of drug and they were compared to the vehicle control values (taken as 100%) to define fractional blocks. […]
(hERG is a cardiac potassium channel; its block is linked to QT prolongation.)

T1 sequence (Q96P20 whole entry): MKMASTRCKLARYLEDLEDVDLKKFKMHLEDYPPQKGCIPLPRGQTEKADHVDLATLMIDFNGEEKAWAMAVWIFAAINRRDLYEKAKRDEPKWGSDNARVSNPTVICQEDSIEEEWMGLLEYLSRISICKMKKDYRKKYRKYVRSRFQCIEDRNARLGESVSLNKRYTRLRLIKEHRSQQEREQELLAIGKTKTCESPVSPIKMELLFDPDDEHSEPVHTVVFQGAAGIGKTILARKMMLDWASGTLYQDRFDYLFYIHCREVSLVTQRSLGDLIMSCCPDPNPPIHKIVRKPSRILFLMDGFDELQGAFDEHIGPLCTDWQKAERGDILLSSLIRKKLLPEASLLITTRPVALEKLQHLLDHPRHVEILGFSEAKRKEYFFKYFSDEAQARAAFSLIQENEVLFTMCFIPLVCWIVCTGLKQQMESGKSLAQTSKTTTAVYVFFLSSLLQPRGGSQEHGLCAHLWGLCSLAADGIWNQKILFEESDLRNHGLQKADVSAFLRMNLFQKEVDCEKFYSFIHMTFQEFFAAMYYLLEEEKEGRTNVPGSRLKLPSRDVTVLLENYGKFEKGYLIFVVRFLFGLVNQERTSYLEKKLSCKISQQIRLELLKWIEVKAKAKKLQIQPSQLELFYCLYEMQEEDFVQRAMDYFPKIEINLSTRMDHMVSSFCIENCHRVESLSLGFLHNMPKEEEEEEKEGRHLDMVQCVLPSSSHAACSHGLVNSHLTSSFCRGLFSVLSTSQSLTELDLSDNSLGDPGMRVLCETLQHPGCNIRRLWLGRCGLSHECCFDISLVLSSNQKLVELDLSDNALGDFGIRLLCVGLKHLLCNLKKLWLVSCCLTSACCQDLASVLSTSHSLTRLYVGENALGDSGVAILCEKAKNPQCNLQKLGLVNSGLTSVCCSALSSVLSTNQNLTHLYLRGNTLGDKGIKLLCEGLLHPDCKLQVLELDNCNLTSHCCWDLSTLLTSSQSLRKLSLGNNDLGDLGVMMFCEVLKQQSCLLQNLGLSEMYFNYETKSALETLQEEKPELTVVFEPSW

`Cc1cc2c(c(O)c1-c1nnc(N[C@@H]3CCCN(CCO)C3)n(C)c1=O)CCC2` [Example 4, 3-[[(3R)-1-(2-Hydroxyethyl)-3-piperidyl]amino]-6-(4-hydroxy-6-methyl-indan-5-yl)-4-methyl-1,2,4-triazin-5-one] had a 50% inhibitory concentration (IC50) against NLRP3 [1] of 0.248 µM.
As to `CCN1CCC[C@@H](Nc2nnc(-c3c(C)cc(C(F)(F)F)cc3O)c(=O)n2C)C1` [Example 2, 3-[[(3R)-1-ethyl-3-piperidyl]amino]-6-[2-hydroxy-6-methyl-4-(trifluoromethyl)phenyl]-4-methyl-1,2,4-triazin-5-one], the IC50 came to 0.052 µM against NLRP3 [2] and 0.0313 µM against NLRP3 [1]. For the same molecule, the 20% effect concentration (IC20) in series [3] was more than 10 µM.
In turn, `CCN1CCC[C@@H](Nc2nnc(-c3ccc(C(F)(F)F)cc3O)c(=O)n2C)C1` [Example 1, 3-[[(3R)-1-Ethyl-3-piperidyl]amino]-6-[2-hydroxy-4-(trifluoromethyl)phenyl]-4-methyl-1,2,4-triazin-5-one; Formic Acid] came in with an IC50 against NLRP3 [1] of 0.616 µM.
In the case of `CCN1CCC[C@@H](Nc2nnc(-c3c(C)cc(Cl)cc3O)c(=O)n2C)C1` [Example 6, 6-(4-Chloro-2-hydroxy-6-methyl-phenyl)-3-[[(3R)-1-ethyl-3-piperidyl]amino]-4-methyl-1,2,4-triazin-5-one], the 50% inhibitory concentration (IC50) at NLRP3 [2] was determined as 0.041 µM; at NLRP3 [1], 0.033 µM.
In the case of `CCN1CCC[C@@H](Nc2nnc(-c3c(C)cc4c(c3O)CCO4)c(=O)n2C)C1` [Example 5, 3-[[(3R)-1-Ethyl-3-piperidyl]amino]-6-(4-hydroxy-6-methyl-2,3-dihydrobenzofuran-5-yl)-4-methyl-1,2,4-triazin-5-one], the 50% inhibitory concentration (IC50) came out at 0.033 µM against NLRP3 [2] and 0.039 µM against NLRP3 [1].
On to `CCN1CCC[C@@H](Nc2nnc(-c3c(C)cc4c(c3O)CCC4)c(=O)n2C)C1` [Example 3, 3-[[(3R)-1-Ethyl-3-piperidyl]amino]-6-(4-hydroxy-6-methyl-indan-5-yl)-4-methyl-1,2,4-triazin-5-one], for which the concentration for half-maximal inhibition (IC50) at NLRP3 [2] was 0.041 µM; on NLRP3 [1], 0.017 µM. In series [3], this molecule displayed an IC20 of more than 10 µM.

Values taken from patent publication US20260193228A1, “TRIAZINONE DERIVATIVES AS NLRP3 INHIBITORS” (Hoffmann-La Roche Inc., priority 2022, published 2026).
